Data published in patent publication US5880158A, “Propionamide anticonvulsants” (Research Corporation Tech., Inc., priority 1997, dated 1999).

Assays:
[1] = test system: male albino Cartworth Farms No. 1 mice; test: maximal electroshock seizure (MES) test in mice; assay type: in vivo; settings: intraperitoneal; for ED50: Mus musculus, ip, at time of peak effect, numbers in parentheses 95% confidence intervals
Description: (§1) Activity was established using the electrical (maximal electroshock or MES) test. In the MES test, a drop of electrolyte solution with anesthetic (0.5% butacaine hemisulfate in 0.9% sodium chloride) was used in the eyes of the animals prior to positioning the corneal electrodes and delivery of current. A 60 cycle alternating current was administered for 0.2 sec. at 50 mA. Protection endpoints were defined as the abolition of the hind limb tonic extensor component of the induced seizure. In mice, the effects of compounds on forced spontaneous motor activity were determined using the rotorod test. […] Normally under these conditions, a mouse can maintain its balance almost indefinitely. In the mouse identification screening study all compounds were given at three dose levels (30, 100, 300 mg/kg) and two time periods (0.5, 4h). Typically, in the MES seizures test one animal was used at 30 mg/kg and 300 mg/kg, and three animals at 100 mg/kg. In the rotorod toxicity test four animals were used at 30 mg/kg, and 300 mg/kg, and eight animals at 100 mg/kg. If activity was found at 30 mg/kg, then lower dosages were used to find the ED50 values.

[2] = rotorod test, neurologic toxicity in mice; assay type: in vivo; settings: mouse, ip, intraperitoneal, at time of peak effect, numbers in parentheses 95% confidence intervals, read-out: Tox TD50
Description: as §1

[3] = test system: male albino Cartworth Farms No. 1 mice; test: protective index (TD50/ED50), rotorod versus MES in mice; settings: for protective index (in words): compared with phenytoin, phenobarbital and valproate
Description: Compounds were screened under the auspices of the National Institutes of Health for anticonvulsant activity in male albino Cartworth Farms No. 1 mice (ip route). Activity was established using the electrical (maximal electroshock or MES) test. In the MES test, a drop of electrolyte solution with anesthetic (0.5% butacaine hemisulfate in 0.9% sodium chloride) was used in the eyes of the animals prior to positioning the corneal electrodes and delivery of current. A 60 cycle alternating current was administered for 0.2 sec. at 50 mA. Protection endpoints were defined as the abolition of the hind limb tonic extensor component of the induced seizure. In mice, the effects of compounds on forced spontaneous motor activity were determined using the rotorod test. […] Normally under these conditions, a mouse can maintain its balance almost indefinitely. In the mouse identification screening study all compounds were given at three dose levels (30, 100, 300 mg/kg) and two time periods (0.5, 4h). Typically, in the MES seizures test one animal was used at 30 mg/kg and 300 mg/kg, and three animals at 100 mg/kg. In the rotorod toxicity test four animals were used at 30 mg/kg, and 300 mg/kg, and eight animals at 100 mg/kg.
The quantitative determination of the median effective (ED50) and toxic doses (TD50) were conducted at previously calculated times of peak effect. Groups of at least eight animals were tested using different doses of test compound until at least two points were determined between 100 and 0% protection and minimal motor impairment. The dose of candidate substance required to produce the defined endpoint in 50% of the animals in each test and the 95% confidence interval were calculated.

[4] = test system: male albino Cartworth Farms No. 1 mice; test: rotorod test, neurologic toxicity in mice; assay type: in vivo; settings: intraperitoneal, at time of peak effect, numbers in parentheses 95% confidence intervals
Description: as §1

With COCC(OC)C(=O)NCc1ccccc1 (stereo not shown) [R, S OCH3 CH2 OCH3, N-BENZYL 2,3-DIMETHOXY PROPIONAMIDE] the ED50 [1] was 30 mg/kg, the “anticonvulsant activity / efficacy (in words)” value ([1]; MES) was “much greater efficacy” and the “ED50, times more effective than that of the dihydroxy compound” value ([1]; MES, diether versus dihydroxy compound) was “greater than 3 times”. The TD50 [2] was 280 mg/kg, the “protective index (in words)” value ([3]; listed as N-Benzyl 2,3-dimethyoxypropionamide) was “unexpectedly high protective index” and the “protective index (in words)” value ([3]; listed as diether) was “significantly greater than the P.I. values of phenytoin, phenobarbital and valproate”. For the same compound, the “P.I. (protective index, TD50/ED50)” value ([3]; intraperitoneal) was 9.3 and the “P.I., times more effective than that of the dihydroxy compound” value ([3]; intraperitoneal, diether versus dihydroxy compound) was “greater than 3 times”.
COC[C@@H](OC)C(=O)NCc1ccccc1 [R OCH3 CH2 OCH3, (R)-N-Benzyl-2,3-dimethoxypropionamide] showed a TD50 [2] of 300 mg/kg.
Work on CCC1(c2ccccc2)C(=O)NC(=O)NC1=O [phenobarbital] yielded an ED50 [1] of 22 mg/kg.
In the case of O=C1NC(=O)C(c2ccccc2)(c2ccccc2)N1 [phenytoin], the ED50 [1] is reported as 6.5 mg/kg and the “Tox TD50” value [4] is reported as 43 mg/kg.
In the case of CCCC(CCC)C(=O)O [valproate], the ED50 [1] is reported as 290 mg/kg and the “Tox TD50” value [4] is reported as 480 mg/kg.
With O=C(NCc1ccccc1)C(O)CO (racemic) [R, S OH CH2 OH, N-Benzyl 2,3-Dihydroxypropionamide] the “anticonvulsant activity / efficacy (in words)” value ([1]; MES) was “very low anticonvulsant activity” and the TD50 [2] was greater than 300 mg/kg.
